{"source": "patent US12264170B2", "about": "“Antimicrobial organosilanes” (TOPIKOS SCIENTIFIC, INC., priority 2019, dated 2025)", "key": {"[1]": {"tested_on": "Staphylococcus aureus ATCC 33591", "assay": "MIC microdilution assay", "format": "cell-based", "settings": "S. aureus ATCC 33591; CAMHB; 35±2° C. 18 to 20 hours; two values given", "protocol": "(§1) Strain numbers starting with “ATCC” were acquired from the American Type Culture Collection (Manassas, VA), while strain numbers starting with “CDC” were acquired from the Centers for Disease Control and Prevention (Atlanta, GA). All strains were maintained as −80° C. frozen glycerol stocks. S. aureus and P. aeruginosa were grown overnight on Tryptic Soy Agar (TSA) plates at 35±2° C., ambient atmosphere, while S. pyogenes was grown overnight on TSA+5% defibrinated sheep blood at 35±2° C., 5% CO2. All fungal species (i.e. C. albicans, C. auris and C. herbarum) were grown on Sabouraud Dextrose Agar (SDA) plates. C. herbarum was grown at 25±2° C. for 5 to 7 days, while all other fungal strains were grown at 35±2° C. overnight.\n(§2) Test articles Compound 2 (batch #2G13A0.368) and Compound 23 (batch #2G17A0.372) were received and stored at 4° C. The antibiotic Tobramycin and antifungal Amphotericin B were used as quality control (QC) compounds for the MIC assay. Stock solutions of 3.2 mg/mL Tobramycin (Sigma-Aldrich, cat #T1783-500MG) and 3.2 mg/mL Amphotericin B (CP Lab Chemicals, cat #TOK-A007-1G) were prepared in sterile ultrapure water.\n(§3) For bacteria strains, a few colonies of each strain were collected with a sterile swab and used to make a McFarland 0.5 standard solution (approximately 1×10^8 CFU/mL) in sterile PBS. The McFarland was then diluted 1:180 in Cation Adjusted Muller-Hinton Broth (CAMHB) for S. aureus and P. aeruginosa, and in […]+5% defibrinated sheep blood for S. pyogenes. 90 μL of this inoculum was combined with 10 μL of the 10× test article in a 96-well plate for a final concentration of 1×.\n(§4) All bacterial-strain MIC 96-well plates were incubated at 35±2° C. for 18 to 20 hours, while all Candida MIC 96-well plates were incubated at 35±2° C. for 24 to 48 hours. C. herbarum MIC 96-well plates were incubated at 25±2° C. for 3 to 5 days, until growth was visible in the growth control wells. After incubation, the 96-well plates were examined visually and on a spectrophotometer at absorbance OD650. […]"}, "[2]": {"tested_on": "P. aeruginosa ATCC 27853", "assay": "MIC microdilution assay", "format": "cell-based, Pseudomonas aeruginosa", "settings": "CAMHB, 35±2° C. 18 to 20 hours, two values given", "protocol": "as §1, §2, §3, §4"}, "[3]": {"tested_on": "Candida auris CDC 0381", "assay": "MIC microdilution assay", "format": "cell-based", "settings": "C. auris CDC 0381; RPMI media; 35±2° C. 24 to 48 hours; two values given", "protocol": "as §1, §2, §3\nFor the yeasts C. albicans and C. auris, a McFarland 0.5 standard solution in sterile PBS was similarly prepared (approximately 1×10^6 CFU/mL) and was subsequently diluted 1:180 in RPMI 1640 media buffered with 0.165 M MOPS at pH 7.0 (herein referred to as “RPMI media”). 90 μL of the Candida inoculum was combined with 10 μL of the 10× test article in a 96-well plate for a final concentration of 1×.\nAll bacterial-strain MIC 96-well plates were incubated at 35±2° C. for 18 to 20 hours, while all Candida MIC 96-well plates were incubated at 35±2° C. for 24 to 48 hours. C. herbarum MIC 96-well plates were incubated at 25±2° C. for 3 to 5 days, until growth was visible in the growth control wells. After incubation, the 96-well plates were examined visually and on a spectrophotometer at absorbance OD650. MIC is defined as the lowest concentration of a compound in which no visible growth is observed."}, "[4]": {"tested_on": "P. aeruginosa ATCC 27853", "assay": "MBC/MFC determination", "format": "cell-based, Pseudomonas aeruginosa", "settings": "plated after 18 to 20 hours incubation, two values given", "protocol": "(§5) 10 μL of liquid from each test condition was plated on the appropriate agar media for each test strain. For bacteria strains, plating for MBC occurred after 18 to 20 hours incubation. For the Candida species, plating for MFC occurred after 48 hours incubation, while C. herbarum plating for MFC occurred 3 days after incubation when growth in growth control wells was visually observed. Once the liquid from the 96-well plate has been allowed to air dry in a biosafety cabinet, the agar plates were incubated under the appropriate conditions and colony formation was assessed. MBC/MFC is defined as the lowest concentration of a compound in which no colonies were recovered."}, "[5]": {"tested_on": "S. pyogenes ATCC 51339", "assay": "MBC/MFC determination", "format": "cell-based, Steptococcus pyogenes", "settings": "plated after 18 to 20 hours incubation, two values given", "protocol": "as §5"}, "[6]": {"tested_on": "Candida albicans ATCC 90028", "assay": "MBC/MFC determination", "format": "cell-based", "settings": "C. albicans ATCC 90028; plated after 48 hours incubation; two values given", "protocol": "as §5"}, "[7]": {"tested_on": "Candida auris CDC 0381", "assay": "MBC/MFC determination", "format": "cell-based", "settings": "C. auris CDC 0381; plated after 48 hours incubation; two values given", "protocol": "as §5"}, "[8]": {"tested_on": "Cladosporium herbarum ATCC MYA-4682", "assay": "MBC/MFC determination", "format": "cell-based", "settings": "C. herbarum ATCC MYA-4682; plated 3 days after incubation; two values given", "protocol": "as §5"}}, "note": "Where “and” joins values, the source holds several entries; their conditions need not be identical. Identical values can stand only once."}
{"smiles": "CCCCCCCCCCCCCCCCCC[N+](C)(C)CCC[Si](OCC(CO)(CO)NCC(O)CS(=O)(=O)[O-])(OCC(CO)(CO)NCC(O)CS(=O)(=O)[O-])OCC(CO)(CO)NCC(O)CS(=O)(=O)O.[Cl-].[Na+].[Na+]", "note": "(centres unmarked) [Compound 2]", "values": [{"measurement": "MIC", "setting": "[1]", "result": 1, "unit": "µg/mL"}, {"measurement": "MIC", "setting": "[2]", "result": ">64", "unit": "µg/mL"}, {"measurement": "MIC", "setting": "[3]", "result": 1, "unit": "µg/mL"}, {"measurement": "MBC/MFC", "setting": "[4]", "result": ">64", "unit": "µg/mL"}, {"measurement": "MBC/MFC", "setting": "[5]", "result": ">64 µg/mL and 64 µg/mL"}, {"measurement": "MBC/MFC", "setting": "[6]", "result": "2 µg/mL and 1 µg/mL"}, {"measurement": "MBC/MFC", "setting": "[7]", "result": 1, "unit": "µg/mL"}, {"measurement": "MBC/MFC", "setting": "[8]", "result": 2, "unit": "µg/mL"}]}
